Assay results reported in US20240247035A1, “STAPLED ANTIMICROBIAL PEPTIDES (STAMPS) AND USES THEREOF” (Lytica Therapeutics, Inc., priority 2021, published 2024).
Bridge positions count the residues as written; N and C are the ends. Square brackets hold non-standard residues; d marks the D form. Peptide text beside a SMILES is read from it. S5 = C=CCCC[C@](C)(N)C(=O)O

Experiments:
E. coli = format: cell-based, Escherichia coli; conditions: 20-24 hours at 37° C., no visible bacterial growth
Experimental: (§1) Antimicrobial Activity Assay: The following microbroth dilution protocol was adapted from CLSI to determine the minimum inhibitory concentration (MIC) of StAMPs. Briefly, Mueller-Hinton broth (MHB) or cation-adjusted Mueller-Hinton broth (MHB II) was prepared and autoclaved. Then, a colony of bacterial cells was picked and grown overnight in broth at 37° C. and then diluted and allowed to grow again for 3-4 hours. Serial dilutions of peptide stocks in water (10 μl) were prepared using clear round-bottom polypropylene 96-well plates. Then 90 μl of bacteria in broth was added to give a final inoculum of 5×10^5 CFU/ml. The plates were then covered with porous tape to reduce evaporation and incubated for 20-24 hours at 37° C. The MIC was the minimum peptide concentration at which no visible bacterial growth was observed.

A. baumannii = format: cell-based, Acinetobacter baumannii; conditions: 20-24 hours at 37° C., no visible bacterial growth
Experimental: as §1

P. aeruginosa = format: cell-based, Pseudomonas aeruginosa; conditions: 20-24 hours at 37° C., no visible bacterial growth
Experimental: as §1

K. pneumoniae = format: cell-based, Klebsiella pneumoniae; conditions: 20-24 hours at 37° C., no visible bacterial growth
Experimental: as §1

S. aureus = format: cell-based, Staphylococcus aureus; conditions: 20-24 hours at 37° C., no visible bacterial growth
Experimental: as §1

[1] = 90 minute cytotoxicity assay (LDH release), renal toxicity; format: cell-based; conditions: human; 90 minutes of incubation, LDH; read-out: Inhibitory Concentration at 50% Cytotoxicity (IC50) Human Renal Proximal Tubule Epithelial Cells (RPTEC)
Procedure, shortened: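 RPTEC in growth-factor-supplemented MEM were exposed overnight-plated to serial dilutions of StAMPs (from 5 mg/mL water stock) or vehicle for 90 min at 37 °C. Released LDH in medium was measured with LDH reagent for 10 min, absorbance at 490 nm.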

[2] = 48 hours cytotoxicity assay (CellTiter-Glo), liver toxicity; format: cell-based; conditions: human; 48 hours of incubation, CellTiter-Glo; read-out: Inhibitory Concentration at 50% Cytotoxicity (IC50) Human Liver Cells (HepG2)
Procedure, shortened: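 HepG2 cells (EMEM, 10% FBS) attached 4 h, then exposed to serial dilutions of StAMPs (from 5 mg/mL water stock) or vehicle for 48 h at 37° C. Viability read by CellTiter-Glo luminescence after 10 min at room temperature.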

**Q.** With `CC[C@H](C)[C@@H]1NC(=O)[C@@](C)(NC(=O)[C@H](CC(C)C)NC(=O)[C@H](CC(N)=O)NC(=O)[C@H](CCCCN)NC(=O)[C@H](CCCCN)NC(=O)[C@H](CCCCN)NC(=O)[C@H](CCCCN)NC(=O)CNC(=O)[C@H](CCCCN)NC(=O)[C@]2(C)CCCC=CCCC[C@](C)(NC(=O)CN)C(=O)N[C@@H](Cc3ccccc3)C(=O)N[C@@H](CO)C(=O)N[C@@H](CCCCN)C(=O)N2)CCCC=CCCC[C@@](C)(C(=O)N[C@@H](CCCCN)C(=O)NCC(N)=O)NC(=O)CNC(=O)[C@H](CO)NC1=O` [compound 28] (H-G[S5]FSK[S5]KGKKKKNL[S5]ISG[S5]KG-NH2; staple 2-6, 15-19) as the molecule, how does the “Minimum Inhibitory Concentration (MIC) E. coli” value (E. coli) read?
**A.** 64 µg/mL

**Q.** What about the “Minimum Inhibitory Concentration (MIC) A. baumannii” value (A. baumannii) of the same molecule?
**A.** 6 µg/mL

**Q.** And the “Minimum Inhibitory Concentration (MIC) P. aeruginosa” value (P. aeruginosa)?
**A.** 6 µg/mL

**Q.** And the “Minimum Inhibitory Concentration (MIC) K. pneumoniae” value (K. pneumoniae)?
**A.** >64 µg/mL

**Q.** And the “Minimum Inhibitory Concentration (MIC) S. aureus” value (S. aureus)?
**A.** >64 µg/mL

**Q.** And the IC50 at 90 min [1]?
**A.** > 200 µg/mL

**Q.** And the IC50 at 48 hours [2]?
**A.** > 200 µg/mL
